# Test results published in ChEMBL document CHEMBL1135309, “Tryptophanyl phosphoramidates as prodrugs of synadenol and its E-isomer: synthesis and biological activity” (2002).
# Key:
# HCT-15 [1] = experiment: Antitumor activity against human HCT15 to multiple drug-resistant human colon tumor at 500 ug/disk in disk diffusion assay; type: functional
# [2] = Ratio of antiviral activity of HSV-1 to the ratio of cytotoxicity of Vero (EC50/CC50) against cytopathic effect inhibition assay in CEM cells; >1/<10; type: functional
# [3] = Ratio of antiviral activity of HSV-2 to the ratio of cytotoxicity of HFF (EC50/CC50) against cytopathic effect inhibition assay; 1.1/18; type: functional
# [4] = Ratio of antiviral activity of HSV-1 to the ratio of cytotoxicity of BSC-1 (EC50/CC50) against KB cells; 2.5/0.5; type: functional
# [5] = Ratio of antiviral activity of HSV-1 to the ratio of cytotoxicity of HFF (EC50/CC50) against cytopathic effect inhibition assay; <0.07/18; type: functional
# [6] = Ratio of antiviral activity of VZV to the ratio of cytotoxicity of HFF (EC50/CC50) against cytopathic effect inhibition assay; 7.6/101; type: functional
# [7] = Ratio of antiviral activity of HBV to the ratio of cytotoxicity of 2.2.15 (EC50/CC50) in HBV-DNA inhibition assay against CEM cells; 0.01/0.3; type: functional, CCRF-CEM
# [8] = Antiviral activity against HCMV (Towne) in HFF cells by plaque reduction assay
# [9] = Antiviral activity against HCMV (AD 169) in HFF cells (EC50) against cytopathic effect inhibition assay
# [10] = Antiviral activity against HIV-1 in MT-2 cells (EC50) against cytopathic effect inhibition assay; 0.003/0.24
# [11] = Antiviral activity against EBV in Daudi cells (EC50) against viral capsid antigen immunofluorescence assay (VCA-IF); 1.0/>108
# [12] = Antitumor activity against normal cells (fibroblasts) at 500 ug/disk in disk diffusion assay; Value ranges from 0-100; type: functional
# HCT-15 [13] = experiment: Antitumor activity against human HCT15 to multiple drug-resistant human colon tumor at 500 ug/disk in disk diffusion assay; Value ranges from 300-400; type: functional
# L1210 = experiment: Antitumor activity against leukemia L1210 at 500 ug/disk in disk diffusion assay; type: functional, Mus musculus
# [14] = Ratio of antiviral activity of HSV-1 to the ratio of cytotoxicity of Vero (EC50/CC50) against cytopathic effect inhibition assay in CEM cells; 31/91; type: functional
# [15] = Ratio of antiviral activity of HSV-2 to the ratio of cytotoxicity of HFF (EC50/CC50) against cytopathic effect inhibition assay; >184/>184; type: functional
# [16] = Ratio of antiviral activity of HIV-1to the ratio of cytotoxicity of MT-2 (EC50/CC50) against cytopathic effect inhibition assay; 1/10; type: functional
# [17] = Ratio of antiviral activity of HSV-1 to the ratio of cytotoxicity of BSC-1 (EC50/CC50) against KB cells; 15/>100; type: functional
# [18] = Ratio of antiviral activity of HSV-1 to the ratio of cytotoxicity of HFF (EC50/CC50) against cytopathic effect inhibition assay; >184/>184; type: functional
# [19] = Ratio of antiviral activity of HSV-2 to the ratio of cytotoxicity of Vero (EC50/CC50) against cytopathic effect inhibition assay in CEM cells; 40/91; type: functional
# [20] = Ratio of antiviral activity of VZV to the ratio of cytotoxicity of HFF (EC50/CC50) against cytopathic effect inhibition assay; 5.0/111; type: functional
# [21] = Antiviral activity of HCMV (Towne)in HFF cells by plaque reduction assay
# [22] = Antiviral activity against HBV in 2.2.15 cells in HBV-DNA inhibition assay
# [23] = Antiviral activity against HCMV (AD 169) in HFF cells assessed by cytopathic effect inhibition assay; 5.2/90
# [24] = Antiviral activity against EBV in Daudi cells against viral capsid antigen immunofluorescence assay (VCA-IF)
# [25] = Ratio of antiviral activity of HSV-1 to the ratio of cytotoxicity of Vero (EC50/CC50) against cytopathic effect inhibition assay in CEM cells; 28/>100; type: functional
# [26] = Ratio of antiviral activity of HSV-2 to the ratio of cytotoxicity of HFF (EC50/CC50) against cytopathic effect inhibition assay; 80/433; type: functional
# [27] = Ratio of antiviral activity of HSV-1 to the ratio of cytotoxicity of BSC-1 (EC50/CC50) against KB cells; 26/78; type: functional
# [28] = Ratio of antiviral activity of HSV-1 to the ratio of cytotoxicity of HFF (EC50/CC50) against cytopathic effect inhibition assay; >92/433; type: functional
# [29] = Ratio of antiviral activity of VZV to the ratio of cytotoxicity of HFF (EC50/CC50) against cytopathic effect inhibition assay; 2.5/368; type: functional
# [30] = Ratio of antiviral activity of HSV-2 to the ratio of cytotoxicity of Vero (EC50/CC50) against cytopathic effect inhibition assay in CEM cells; 59/>100; type: functional
# [31] = Antiviral activity against HCMV (Towne) in HFF cells by plaque reduction assay; remark: listed apart in the source
# [32] = Antiviral activity against HCMV (AD 169) in HFF cells against cytopathic effect inhibition assay; 1.0/303
# [33] = Antiviral activity against HIV-1 in MT-2 cells (EC50) against cytopathic effect inhibition assay; 0.75/32
# [34] = Antiviral activity against HBV in 2.2.15 cells (EC50) in HBV-DNA inhibition assay against CEM cells; 2/>100
# [35] = Antiviral activity against EBV in Daudi cells (EC50) against viral capsid antigen immunofluorescence assay (VCA-IF); 3.2/368
structure (smiles),measurement,setting,value
COC(=O)C(C)NP(=O)(OCC1C/C1=C/n1cnc2c(N)ncnc21)Oc1ccccc1 (stereo unspecified),Activity,HCT-15 [1],200 ug disk-1
same,Ratio,[2],>1
same,Ratio,[3],1.1
same,Ratio,[4],2.5
same,Ratio,[5],<0.07
same,Ratio,[6],7.6
same,Ratio,[7],0.01
same,EC50,[8],0.14 µM
same,EC50,[9],1.3 µM
same,EC50,[10],3 nM
same,EC50,[11],1 µM
COC(=O)C(Cc1c[nH]c2ccccc12)NP(=O)(O)OCC1C/C1=C/n1cnc2c(N)ncnc21 (stereo unspecified),Activity,[12],0 zone units
same,Activity,HCT-15 [13],300 zone units
same,Activity,L1210,0 zone units
same,Ratio,[14],31
same,Ratio,[15],>184
same,Ratio,[16],1
same,Ratio,[17],15
same,Ratio,[18],>184
same,Ratio,[19],40
same,Ratio,[20],5
same,EC50,[21],1.5 µM
same,EC50,[22],0.49 µM
same,EC50,[23],5.2 µM
same,EC50,[24],> 18 µM
Nc1ncnc2c1ncn2/C=C1/CC1CO (stereo unspecified),Ratio,[25],28
same,Ratio,[26],80
same,Ratio,[27],26
same,Ratio,[28],>92
same,Ratio,[29],2.5
same,Ratio,[30],59
same,EC50,[31],2.1 µM
same,EC50,[32],1 µM
same,EC50,[33],0.75 µM
same,EC50,[34],2 µM
same,EC50,[35],3.2 µM
